Laboratory results published in patent publication US20100234238A1, “METHOD FOR PROFILING KINASE INHIBITORS” (Janssen Pharmaceutica N V, priority 2006, published 2010).

Tested on: tyrosine kinase activity in xenograft tumor lysates
Experiment: PAMCHIP96 (140-peptide array) profiling of xenograft tumor lysates in absence or presence of MTKI
Type: biochemical
Details: 5 μM
Experimental: 100 mg of frozen tumor or tissue blocks, or sections, are lysed in 1 ml of M-PER buffer (PIERCE) containing phosphatase and protease inhibitors (HALT, PIERCE). The suspension is mixed using a ULTRA-TURRAX blender (IKA werke), and centrifuged twice for 10 minutes at 12 000×g. Supernatant lysates are filtered through a 0.2 micrometer filter (Anotop 0.2 μm anopore filter; Whatmann). Lysates are flash frozen in liquid nitrogen and stored at −80C.
Just prior to the PAMCHIP experiment, total protein content is quantitated in the lysates and lysates are diluted to 1 mg/ml in a total volume of 200 μl, with M-PER phosphatase and protease inhibitors (HALT, PIERCE). 10 μg of total lysate (corresponding to 10 μl) will be used per well on the PAMCHIP96.
To all 200 μl lysates 10 units of benzonase (Novagen) is added and lysates are further incubated for 30 min on ice and next centrifuged for 10 minutes at 12 000×g. The supernatant is then 1:1 diluted with compound or DMSO diluted to the appropriate concentration in water, and lysates are further incubated exactly 60 min on ice. Meanwhile, a PAMCHIP96 tyrosine peptide chip (PAMGENE) is blocked with 2% BSA (filtered through a 0.2 μm anopore filter; Whatmann) using the standard setting of a PAMSTATION96 (PAMGENE).
The composition of the kinase buffer is as follows: 1×ABL buffer (NEB), 0.5 mg/ml BSA (from 10 mg/ml NEB stock), 100 μM ATP (dissolved and diluted in 1×ABL buffer), 5 μg/ml PY20-FITC (ExAlpha Biologicals, azide-free preparation). A twofold concentrated kinase buffer is prepared chilled on ice, DMSO or compound is added as appropriate, and the solution is added 1:1 to the (compound treated) ice cold lysates, and immediately applied to a tyrosine peptide PAMCHIP96. The assay is run on a PAMSTATION96 according to standard procedures: after loading of the plate, solution is pumped once onto the wells, a first exposure is read (150 mSec) and then a kinetic reading program (reading every 5 min for 150 mSec) is run for 60 min. Lysates are run in 6 technical replicates for each condition; replicates are always applied horizontally next to each other to avoid vertical strip effects of the chip.
The data (spot images) are further quantified and linked to the peptide identities using EVOLVE PAMGRID software (PAMGENE). The quantified data are then fit to a curve using CurveFitHT software (PAMGENE) using the Vinip2 curve fitting algorithm, applied on the first 30 min of the assay; the initial velocity is derived at the first kinetic time point read. All subsequent data analyses were done on initial velocities (Vini) using the software packages Omniviz and R (Ihaka, R. and Gentlemen, R. (1996) R: a language for data analysis and graphics. J. Comput. Graph. Stat., 5, 299-314).
After replacing the Vini's lower than 0.1 by 0.1, all Vini's were log 2-transformed to approach normality. […] This test was done for each peptide separately using a mixed model (Littell, R. C., Milliken, G. A., Stroup, W. W., Wolfinger, R. D. 1996. SAS system for mixed models. Cary, N. C.: SAS Institute Inc.) allowing the incorporation of both technical variation (i.e., the variation across replicates) and biological variation (i.e., the variation among the various responding and non-responding cell lines or tumors). Variation between cell lines or tumors in Vini and in treatment effect on Vini was modeled respectively by random intercepts and random compound effects per cell line or tumor, nested in response status. The difference in compound-induced reduction in Vini between responding and non-responding cell lines or tumors was tested through the interaction between compound treatment and response status, both modeled as fixed effects.

For COc1cc2ncnc3c2cc1OCCCCCN(C)Cc1ccc(Br)cc1N3 [MTKI, 4,6-ethanediylidenepyrimido[4,5-b][6,1,12]benzoxadiazacyclopentadecine, 17-bromo-8,9,10,11,12,13,14,19-octahydro-20-methoxy-13-methyl-], the “ratio of initial velocity of peptide phosphorylation” value (“ratio” below) (A431 xenograft tumor lysate, CDK7_157_169_S164) was 0.60, the “ratio” value (A431 xenograft tumor lysate, EPHB1_921_933_Y928) was 0.39 and the “ratio” value (A431 xenograft tumor lysate, FAK1_569_581_Y576/Y577) was 0.58. The “ratio” value (A431 xenograft tumor lysate, GSK3B_209_221_Y216) was 0.67, the “ratio” value (A431 xenograft tumor lysate, K2C6E_53_65_S59) was 0.54 and the “ratio” value (A431 xenograft tumor lysate, MBP_259_271_Y261/Y268/S266) was 0.60. The “ratio” value (A431 xenograft tumor lysate, MK10_216_228_T221/Y223) was 0.60, the “ratio” value (A431 xenograft tumor lysate, NCF1_313_325_S315/S320) was 0.66 and the “ratio” value (A431 xenograft tumor lysate, NTRK2_699_711_Y702/Y706/Y707) was 0.46. For the same molecule, the “ratio” value (A431 xenograft tumor lysate, P2AB_297_309_T304/Y307) was 0.65, the “ratio” value (A431 xenograft tumor lysate, PGFRB_572_584_Y579/Y581) was 0.64 and the “ratio” value (A431 xenograft tumor lysate, RAF1_331_343_S337/S338/Y339/Y340) was 0.58. The “ratio” value (A431 xenograft tumor lysate, RB_804_816_S807/S811) was 0.53, the “ratio” value (A431 xenograft tumor lysate, SYN1_2_14_S9) was 0.76 and the “ratio” value (A431 xenograft tumor lysate, TYRO3_679_691_Y686) was 0.55. For the same molecule, the “ratio” value (A431 xenograft tumor lysate, VEGFR2_944_956_Y951) was 0.58, the “ratio” value (A431 xenograft tumor lysate, VINC_815_827_Y821) was 0.52 and the “ratio” value (BT474 xenograft tumor lysate, EPHB1_921_933_Y928) was 0.70. The “ratio” value (BT474 xenograft tumor lysate, FAK1_569_581_Y576/Y577) was 0.89, the “ratio” value (BT474 xenograft tumor lysate, GSK3B_209_221_Y216) was 0.89 and the “ratio” value (BT474 xenograft tumor lysate, K2C6E_53_65_S59) was 0.80. The “ratio” value (BT474 xenograft tumor lysate, MBP_259_271_Y261/Y268/S266) was 0.85, the “ratio” value (BT474 xenograft tumor lysate, MK10_216_228_T221/Y223) was 0.83 and the “ratio” value (BT474 xenograft tumor lysate, NCF1_313_325_S315/S320) was 1.02. For the same molecule, the “ratio” value (BT474 xenograft tumor lysate, NTRK2_699_711_Y702/Y706/Y707) was 0.77, the “ratio” value (BT474 xenograft tumor lysate, P2AB_297_309_T304/Y307) was 0.62 and the “ratio” value (BT474 xenograft tumor lysate, PGFRB_572_584_Y579/Y581) was 0.75. For the same molecule, the “ratio” value (BT474 xenograft tumor lysate, RAF1_331_343_S337/S338/Y339/Y340) was 0.94, the “ratio” value (BT474 xenograft tumor lysate, RB_804_816_S807/S811) was 0.80 and the “ratio” value (BT474 xenograft tumor lysate, SYN1_2_14_S9) was 0.96. The “ratio” value (BT474 xenograft tumor lysate, TYRO3_679_691_Y686) was 0.84, the “ratio” value (BT474 xenograft tumor lysate, VEGFR2_944_956_Y951) was 0.84 and the “ratio” value (BT474 xenograft tumor lysate, VINC_815_827_Y821) was 0.85. The “ratio” value (DU145 xenograft tumor lysate, CDK7_157_169_S164) was 0.96, the “ratio” value (DU145 xenograft tumor lysate, EPHB1_921_933_Y928) was 0.81 and the “ratio” value (DU145 xenograft tumor lysate, FAK1_569_581_Y576/Y577) was 0.72. For the same molecule, the “ratio” value (DU145 xenograft tumor lysate, GSK3B_209_221_Y216) was 1.07, the “ratio” value (DU145 xenograft tumor lysate, K2C6E_53_65_S59) was 0.77 and the “ratio” value (DU145 xenograft tumor lysate, MBP_259_271_Y261/Y268/S266) was 0.81. The “ratio” value (DU145 xenograft tumor lysate, MK10_216_228_T221/Y223) was 0.77, the “ratio” value (DU145 xenograft tumor lysate, NCF1_313_325_S315/S320) was 0.97 and the “ratio” value (DU145 xenograft tumor lysate, NTRK2_699_711_Y702/Y706/Y707) was 0.77. For the same molecule, the “ratio” value (DU145 xenograft tumor lysate, P2AB_297_309_T304/Y307) was 0.81, the “ratio” value (DU145 xenograft tumor lysate, PGFRB_572_584_Y579/Y581) was 0.72 and the “ratio” value (DU145 xenograft tumor lysate, RAF1_331_343_S337/S338/Y339/Y340) was 0.83. The “ratio” value (DU145 xenograft tumor lysate, RB_804_816_S807/S811) was 0.76, the “ratio” value (DU145 xenograft tumor lysate, SYN1_2_14_S9) was 0.88 and the “ratio” value (DU145 xenograft tumor lysate, TYRO3_679_691_Y686) was 0.83. For the same molecule, the “ratio” value (DU145 xenograft tumor lysate, VEGFR2_944_956_Y951) was 0.95, the “ratio” value (DU145 xenograft tumor lysate, VINC_815_827_Y821) was 0.84 and the “ratio” value (H322 xenograft tumor lysate, CDK7_157_169_S164) was 0.77. For the same molecule, the “ratio” value (H322 xenograft tumor lysate, EPHB1_921_933_Y928) was 0.75, the “ratio” value (H322 xenograft tumor lysate, FAK1_569_581_Y576/Y577) was 0.82 and the “ratio” value (H322 xenograft tumor lysate, GSK3B_209_221_Y216) was 0.77. The “ratio” value (H322 xenograft tumor lysate, K2C6E_53_65_S59) was 0.80, the “ratio” value (H322 xenograft tumor lysate, MBP_259_271_Y261/Y268/S266) was 0.65 and the “ratio” value (H322 xenograft tumor lysate, MK10_216_228_T221/Y223) was 0.68. For the same molecule, the “ratio” value (H322 xenograft tumor lysate, NCF1_313_325_S315/S320) was 0.78, the “ratio” value (H322 xenograft tumor lysate, NTRK2_699_711_Y702/Y706/Y707) was 0.76 and the “ratio” value (H322 xenograft tumor lysate, P2AB_297_309_T304/Y307) was 0.77. For the same molecule, the “ratio” value (H322 xenograft tumor lysate, PGFRB_572_584_Y579/Y581) was 0.67, the “ratio” value (H322 xenograft tumor lysate, RAF1_331_343_S337/S338/Y339/Y340) was 0.79 and the “ratio” value (H322 xenograft tumor lysate, RB_804_816_S807/S811) was 0.75. The “ratio” value (H322 xenograft tumor lysate, SYN1_2_14_S9) was 0.78, the “ratio” value (H322 xenograft tumor lysate, TYRO3_679_691_Y686) was 0.80 and the “ratio” value (H322 xenograft tumor lysate, VEGFR2_944_956_Y951) was 0.75. The “ratio” value (H322 xenograft tumor lysate, VINC_815_827_Y821) was 0.76, the “ratio” value (H3255 xenograft tumor lysate, CDK7_157_169_S164) was 0.45 and the “ratio” value (H3255 xenograft tumor lysate, EPHB1_921_933_Y928) was 0.44. For the same molecule, the “ratio” value (H3255 xenograft tumor lysate, FAK1_569_581_Y576/Y577) was 0.48, the “ratio” value (H3255 xenograft tumor lysate, GSK3B_209_221_Y216) was 0.57 and the “ratio” value (H3255 xenograft tumor lysate, K2C6E_53_65_S59) was 0.56. For the same molecule, the “ratio” value (H3255 xenograft tumor lysate, MBP_259_271_Y261/Y268/S266) was 0.47, the “ratio” value (H3255 xenograft tumor lysate, MK10_216_228_T221/Y223) was 0.31 and the “ratio” value (H3255 xenograft tumor lysate, NCF1_313_325_S315/S320) was 0.73. For the same molecule, the “ratio” value (H3255 xenograft tumor lysate, NTRK2_699_711_Y702/Y706/Y707) was 0.48, the “ratio” value (H3255 xenograft tumor lysate, P2AB_297_309_T304/Y307) was 0.66 and the “ratio” value (H3255 xenograft tumor lysate, PGFRB_572_584_Y579/Y581) was 0.66. For the same molecule, the “ratio” value (H3255 xenograft tumor lysate, RAF1_331_343_S337/S338/Y339/Y340) was 0.53, the “ratio” value (H3255 xenograft tumor lysate, RB_804_816_S807/S811) was 0.52 and the “ratio” value (H3255 xenograft tumor lysate, SYN1_2_14_S9) was 0.50. For the same molecule, the “ratio” value (H3255 xenograft tumor lysate, TYRO3_679_691_Y686) was 0.51, the “ratio” value (H3255 xenograft tumor lysate, VEGFR2_944_956_Y951) was 0.52 and the “ratio” value (H3255 xenograft tumor lysate, VINC_815_827_Y821) was 0.40. The “ratio” value (SUM149 xenograft tumor lysate, EPHB1_921_933_Y928) was 0.85, the “ratio” value (SUM149 xenograft tumor lysate, FAK1_569_581_Y576/Y577) was 0.94 and the “ratio” value (SUM149 xenograft tumor lysate, GSK3B_209_221_Y216) was 0.91. For the same molecule, the “ratio” value (SUM149 xenograft tumor lysate, K2C6E_53_65_S59) was 0.86, the “ratio” value (SUM149 xenograft tumor lysate, MBP_259_271_Y261/Y268/S266) was 1.04 and the “ratio” value (SUM149 xenograft tumor lysate, MK10_216_228_T221/Y223) was 0.75. The “ratio” value (SUM149 xenograft tumor lysate, NCF1_313_325_S315/S320) was 0.94, the “ratio” value (SUM149 xenograft tumor lysate, NTRK2_699_711_Y702/Y706/Y707) was 0.85 and the “ratio” value (SUM149 xenograft tumor lysate, P2AB_297_309_T304/Y307) was 0.87. The “ratio” value (SUM149 xenograft tumor lysate, PGFRB_572_584_Y579/Y581) was 0.69, the “ratio” value (SUM149 xenograft tumor lysate, RAF1_331_343_S337/S338/Y339/Y340) was 0.99 and the “ratio” value (SUM149 xenograft tumor lysate, RB_804_816_S807/S811) was 0.83. The “ratio” value (SUM149 xenograft tumor lysate, SYN1_2_14_S9) was 1.01, the “ratio” value (SUM149 xenograft tumor lysate, TYRO3_679_691_Y686) was 1.03 and the “ratio” value (SUM149 xenograft tumor lysate, VEGFR2_944_956_Y951) was 0.86. For the same molecule, the “ratio” value (SUM149 xenograft tumor lysate, VINC_815_827_Y821) was 0.75.
